# Measurements as given in US5304379A, “Method for reducing sensitization or irritation in transdermal drug delivery and means therefor” (priority 1992, dated 1994).
# How the values were obtained:
# [1] = Patch test (elicitation) in a human subject sensitized to propranolol
# Procedure: A human subject suspected of being sensitized to propranolol was patch tested for 16 hours with 0.5% propranolol in a 2% hydroxyethyl cellulose (HEC) gel buffered to a pH of 8.5 with 0.05M TrisHC1.
# The same subject was patch tested several days later with the following compositions in 2% HEC gel buffered to a pH of 8.5 with 0.05M TrisHC1: 0.5% propranolol; 0.5% tranylcypromine; 10% 2-phenyl-1-ethanol; 0.5% propranolol with 0.5% tranylcypromine; and 0.5% propranolol with 10% 2-phenyl-1-ethanol. Each composition was placed simultaneously at different sites on the subject's volar forearm.
# [2] = tested on: propranolol metabolism in human keratinocytes; conditions: tritiated propranolol 1.5×10^-7 M, several days, metabolites by TLC, vs control incubation without tranylcypromine
# Procedure: At the end of several days, the metabolites resulting from propranolol ,metabolism were identified and quantitated by thin layer chromatography.
# Human keratinocytes were incubated in tritiated propranolol (12.5 Ci/mmole, final concentration 1.5×10^-7 M) and a range of concentration of each phenyl alcohol. Quadruplicates were used at each concentration. At six days, the metabolites resulting from propranolol deamination were extracted (ether, pH of 3) and the radioactivity of the extract was measured by scintillation counting. The concentration of each phenyl alcohol studied, which inhibits 50 percent of propranolol metabolism (MI50) was estimated by means of the Litchfield and Wilcoxon method.
# [3] = tested on: monoamine oxidase-dependent tetracaine metabolism; experiment: In vitro metabolism of tetracaine (methods of the propranolol studies)
# [4] = Patch test (elicitation) in human subjects sensitized to tetracaine, erythema by Minolta Chromameter; assay type: in vivo; conditions: 21 hours after removal
# Procedure: Testing occurred over a period of several weeks where a positive control composition was placed on the skin along with one of the tetracaine/phenyl alcohol compositions and the intensity of the skin reaction obtained, was observed. This was repeated on different areas of the arm until all of the compositions were tested. Each formulation remained on the skin for a period of three hours and the reactions were observed during the 16-24 hour period after removal of the formulation. Erythema or redness of the reaction site was quantitated with a Minolta Chromameter. In all instances, the intensity of the reaction caused by the tetracaine/phenyl alcohol composition, was less than that caused by tetracaine alone (positive control). Thus it was established that the presence of phenyl alcohols reduced the elicitation reaction as compared to the 2% tetracaine gel.
# The best results were obtained using 2-phenyl-1-ethanol and 3-phenyl-1-propanol. On a scale of 0-100, with 0 being 0% inhibition (2% tetracaine gel/positive control) and 100 being 100% inhibition (placebo gel/negative control), the following data was obtained 21 hours after removal of the formulations: […]
# [5] = Induction of contact sensitization by patches in groups of 100 human subjects; assay type: in vivo; conditions: tetracaine/2-phenyl-1-ethanol patches vs tetracaine-only patches, 100 subjects each
# Procedure: The components were blended in an internal mixing bowl at 100° C. and after approximately one hour, the mixture was extruded between two release substrates. One substrate was peeled away and a backing member was applied in its place.
# Similar patches were manufactured without the presence of 2-phenyl-1-ethanol.
# Two groups of 100 human subjects each were then tested. They were each tested by application of a system, for a three hour duration, once every 8 weeks.
# 100 subjects were given the patches containing only tetracaine. […] The other 100 subjects were given the patches containing both tetracaine and 2-phenyl-1-ethanol.
# [6] = tested on: monoamine oxidase activity; assay type: cell-based
# Text: Therefore, the metabolism of chlorpheniramine can also be inhibited in the skin or mucosa, by the addition of metabolic modulators such as the phenyl alcohols disclosed with reference to propranolol.
# [7] = 0.5% alone in 2% HEC gel pH 8.5, volar forearm, one day later, propranolol-sensitized subject
# [8] = 2.5 weight % inhibitor with 2% tetracaine gel
# [9] = 5 weight % inhibitor with 2% tetracaine gel
# [10] = 10 weight % inhibitor with 2% tetracaine gel
SMILES,"skin reaction at patch site [1, 7]",inhibition of monoamine oxidase-dependent tetracaine metabolism [3],"Percent Inhibition of Reaction [4, 8] [%]","Percent Inhibition of Reaction [4, 9] [%]","Percent Inhibition of Reaction [4, 10] [%]",also measured
N[C@@H]1C[C@H]1c1ccccc1 (relative stereo) [tranylcypromine],No reaction,could be inhibited,–,–,–,inhibition of propranolol metabolism [2]: inhibited
OCCc1ccccc1 [2-phenyl-1-ethanol],–,could be inhibited,52,52,77,"skin reaction at patch site ([1]; human, in vivo, pH 8.5): No reaction; reduction of the incidence of sensitization [5]: about 70%"
"OCCCc1ccccc1 [3-Phenyl-1-propanol, 3-phenyl-1-propanol]",–,–,37,100,100,–
CN(C)CCC(c1ccc(Cl)cc1)c1ccccn1 (stereo not shown) [chlorpheniramine],–,–,–,–,–,dependence of in vitro skin metabolism on monoamine oxidase activity [6]: largely dependent upon monoamine oxidase activity
CC(C)NCC(O)COc1cccc2ccccc12 (stereo not shown) [propranolol],strong reaction,–,–,–,–,"skin reaction after patch test ([1]; 0.5% in 2% HEC gel pH 8.5, 16 hours patch, one to two days later): a reaction which was characteristic of a contact sensitization reaction"
CCCCNc1ccc(C(=O)OCCN(C)C)cc1 [tetracaine],–,–,–,–,–,portion of metabolism that is monoamine oxidase-dependent [3]: 25%
